# Results reported in patent US7932270B2 (Cytokinetics, Inc., priority 2006, dated 2011).
# Molecular target: T1, chicken gizzard smooth muscle myosin subfragment-1 chemically crosslinked to cardiac or skeletal actin (Gallus gallus, UniProt P10587)
# T1 construct: chicken gizzard smooth muscle myosin subfragment-1; from tissue; host or cells: chicken gizzard
# Assay: Smooth muscle myosin ATPase dose response assay (pyruvate kinase/horseradish peroxidase/pyruvate oxidase-coupled, amplex red fluorescence)
# Format: biochemical
# Settings: read-out: IC50 Arithmetic Mean
# Method in brief: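 Inhibition is measured in a peroxidase/pyruvate oxidase-linked format at pH 7.00 and 22° C, 0.15 mM ATP final. Myosin input is titrated to a target turnover since active fraction differs between preparations.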
# T1 sequence (P02607 2-151): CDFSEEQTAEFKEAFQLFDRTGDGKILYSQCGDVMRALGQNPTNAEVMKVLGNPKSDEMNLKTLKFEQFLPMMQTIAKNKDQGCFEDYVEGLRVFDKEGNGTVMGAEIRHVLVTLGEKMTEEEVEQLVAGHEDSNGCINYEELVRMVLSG
# T1 sequence (P10587 84-789): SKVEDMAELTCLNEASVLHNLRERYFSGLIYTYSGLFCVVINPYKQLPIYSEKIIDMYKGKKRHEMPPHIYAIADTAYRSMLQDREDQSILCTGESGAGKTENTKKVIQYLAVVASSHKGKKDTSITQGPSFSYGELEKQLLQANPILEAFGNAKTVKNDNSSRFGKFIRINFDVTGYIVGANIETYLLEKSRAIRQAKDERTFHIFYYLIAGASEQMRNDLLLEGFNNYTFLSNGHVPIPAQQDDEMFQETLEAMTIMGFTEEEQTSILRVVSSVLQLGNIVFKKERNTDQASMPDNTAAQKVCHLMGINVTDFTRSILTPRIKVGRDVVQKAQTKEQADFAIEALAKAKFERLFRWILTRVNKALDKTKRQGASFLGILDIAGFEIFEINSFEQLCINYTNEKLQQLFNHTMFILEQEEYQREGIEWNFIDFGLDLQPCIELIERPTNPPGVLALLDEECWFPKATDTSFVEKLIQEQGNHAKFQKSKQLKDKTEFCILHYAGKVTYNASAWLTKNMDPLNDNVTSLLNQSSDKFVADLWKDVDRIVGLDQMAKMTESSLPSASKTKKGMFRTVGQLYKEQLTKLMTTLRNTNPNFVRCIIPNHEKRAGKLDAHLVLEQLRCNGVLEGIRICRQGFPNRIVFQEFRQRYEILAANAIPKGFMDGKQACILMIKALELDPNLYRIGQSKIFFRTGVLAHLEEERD
row,IC50 [µM],Compound
1,0.026,N#Cc1ccccc1-c1ccc(C(=O)NCc2cnccn2)c(NCCc2cccc(F)c2)n1 [(6-(2-cyanophenyl)-2-{[2-(3-fluorophenyl)ethyl]amino}(3-pyridyl))-N-(pyrazin-2-ylmethyl)carboxamide]
2,6.82,O=C(NC[C@@H]1CCCO1)c1ccc(-c2ccccc2)nc1NCCc1ccccn1 [N-[((2S)oxolan-2-yl)methyl]{6-phenyl-2-[(2-(2-pyridyl)ethyl)amino](3-pyridyl)}carboxamide]
3,0.025,N#Cc1ccccc1-c1ccc(C(=O)NC[C@H]2CCCN2C(=O)CN)c(NCCc2cccc(F)c2)n1 [N-{[(2R)-1-(2-aminoacetyl)pyrrolidin-2-yl]methyl}(6-(2-cyanophenyl)-2-{[2-(3-fluorophenyl)ethyl]amino}(3-pyridyl))carboxamide]
4,2.7,NCc1ccc(-c2ccc(C(=O)NCc3cccnc3)c(NCCc3cccc(F)c3)n2)s1 [(6-[5-(aminomethyl)(2-thienyl)]-2-{[2-(3-fluorophenyl)ethyl]amino}(3-pyridyl))-N-(3-pyridylmethyl)carboxamide]
5,1.33,O=C(NCc1cccnc1)c1ccc(-c2cc(F)ccc2Cl)nc1NCCc1cccc(F)c1 [(6-(2-chloro-5-fluorophenyl)-2-{[2-(3-fluorophenyl)ethyl]amino}(3-pyridyl))-N-(3-pyridylmethyl)carboxamide]
6,0.131,C[C@H](CNC(=O)c1cc(F)c(-c2cnn(C)c2)nc1NCCc1cccc(F)c1)NC(=O)[C@H](C)N
7,2.56,CS(=O)(=O)N1CC(=O)N[C@@H](CNC(=O)c2ccc(-c3ccccc3C#N)nc2NCCc2cccc(F)c2)C1 (stereo in doubt) [(6-(2-cyanophenyl)-2-{[2-(3-fluorophenyl)ethyl]amino}(3-pyridyl))-N-{[4-(methylsulfonyl)-6-oxopiperazin-2-yl]methyl}carboxamide]
8,16.4,NC(=O)c1ccccc1-c1ccc(C(=O)NCc2cccnc2)c(NCCc2cccc(F)c2)n1 [2-(6-{[2-(3-fluorophenyl)ethyl]amino}-5-[N-(3-pyridylmethyl)carbamoyl]-2-pyridyl)benzamide]
9,0.043,CC(=O)N1CC[C@@H]1CNC(=O)c1ccc(-c2ccccc2C#N)nc1NCCc1cccc(F)c1 [N-[((2R)-1-acetylazetidin-2-yl)methyl](6-(2-cyanophenyl)-2-{[2-(3-fluorophenyl)ethyl]amino}(3-pyridyl))carboxamide]
10,0.913,COC(=O)CNC[C@H](N)CNC(=O)c1ccc(-c2ccccc2C#N)nc1NCCc1cccc(F)c1 [methyl 2-({(2S)-2-amino-3-[(6-(2-cyanophenyl)-2-{[2-(3-fluorophenyl)ethyl]amino}(3-pyridyl))carbonylamino]propyl}amino)acetate]
11,28.3,O=C(NCc1cccnc1)c1ccc(-c2ccccc2)nc1NCCc1ccc2c(c1)OCO2
12,30.3,"CN(C)C(=O)CNC(=O)c1ccc(-c2ccccc2)nc1NCCc1ccccc1 [N,N-dimethyl-2-({6-phenyl-2-[(2-phenylethyl)amino](3-pyridyl)}carbonylamino)acetamide]"
13,3.17,CC(C)(C)OC(=O)N1CCC[C@@H]1CNC(=O)c1ccc(-c2cn[nH]c2)nc1NCCc1cccc(F)c1 [tert-butyl (2R)-2-{[(2-{[2-(3-fluorophenyl)ethyl]amino}-6-pyrazol-4-yl(3-pyridyl))carbonylamino]methyl}pyrrolidinecarboxylate]
14,7.75,CC(=O)N1CCN(c2ccc(CNC(=O)c3ccc(-c4ccccc4C#N)nc3NCCc3cccc(F)c3)cn2)CC1 [N-{[6-(4-acetylpiperazinyl)(3-pyridyl)]methyl}(6-(2-cyanophenyl)-2-{[2-(3-fluorophenyl)ethyl]amino}(3-pyridyl))carboxamide]
15,1.21,NCc1ccnc(CNC(=O)c2ccc(-c3ccccc3)nc2NCCc2cccc(F)c2)c1 [N-{[4-(aminomethyl)(2-pyridyl)]methyl}(2-{[2-(3-fluorophenyl)ethyl]amino}-6-phenyl(3-pyridyl))carboxamide]
16,0.049,C[C@H](CNC(=O)c1ccc(-c2ccccc2C#N)nc1NCCc1cccc(F)c1)NC(=O)CCCNC(=O)OC(C)(C)C
17,0.249,N#Cc1ccccc1-c1ccc(C(=O)NC[C@@H](CO)NC(=O)CN)c(NCCc2cccc(F)c2)n1 [N-((1S)-1-{[(6-(2-cyanophenyl)-2-{[2-(3-fluorophenyl)ethyl]amino}(3-pyridyl))carbonylamino]methyl}-2-hydroxyethyl)-2-aminoacetamide]
18,0.32,CC(C)(CNC(=O)c1ccc(-c2ccccc2C#N)nc1NCCc1cccc(F)c1)NC(=O)CN
19,1.16,N#Cc1ccccc1-c1ccc(C(=O)NC[C@H]2CCCCN2)c(NCCc2cccc(F)c2)n1 [N-[((2R)(2-piperidyl))methyl](6-(2-cyanophenyl)-2-{[2-(3-fluorophenyl)ethyl]amino}(3-pyridyl))carboxamide]
20,4.81,N#Cc1ccccc1-c1ccc(C(=O)NCC(O)CN)c(NCCc2cccc(F)c2)n1 (stereo not drawn) [N-(3-amino-2-hydroxypropyl)(6-(2-cyanophenyl)-2-{[2-(3-fluorophenyl)ethyl]amino}(3-pyridyl))carboxamide]
21,8.1,COc1ccc(CNC(=O)c2ccc(-c3ccccc3C#N)nc2NCCc2cccc(F)c2)cn1 [(6-(2-cyanophenyl)-2-{[2-(3-fluorophenyl)ethyl]amino}(3-pyridyl))-N-[(6-methoxy(3-pyridyl))methyl]carboxamide]

# Further lines, the compound ahead of its results:
row,Compound,IC50 [µM]
1,Cn1cc(-c2nc(NCCc3cccc(F)c3)c(C(=O)NC[C@H]3CCC(=O)N3CCCNC(=O)OC(C)(C)C)cc2F)cn1 [N-[((2R)-1-{3-[(tert-butoxy)carbonylamino]propyl}-5-oxopyrrolidin-2-yl)methyl](5-fluoro-2-{[2-(3-fluorophenyl)ethyl]amino}-6-(1-methylpyrazol-4-yl)(3-pyridyl))carboxamide],0.322
2,N#Cc1ccccc1-c1ccc(C(=O)NC[C@H]2CN(CCCN)CC(=O)N2)c(NCCc2cccc(F)c2)n1 [N-{[(2S)-4-(3-aminopropyl)-6-oxopiperazin-2-yl]methyl}(6-(2-cyanophenyl)-2-{[2-(3-fluorophenyl)ethyl]amino}(3-pyridyl))carboxamide],2.81
3,CCS(=O)(=O)N1CCNC[C@@H]1CNC(=O)c1ccc(-c2ccccc2C#N)nc1NCCc1cccc(F)c1 [N-{[(2R)-1-(ethylsulfonyl)piperazin-2-yl]methyl}(6-(2-cyanophenyl)-2-{[2-(3-fluorophenyl)ethyl]amino}(3-pyridyl))carboxamide],16.8
4,Cn1cc(-c2ccc(C(=O)NCC3CCN(CCCN)C3=O)c(NCCc3cccc(F)c3)n2)cn1 (stereo not drawn) [N-{[1-(3-aminopropyl)-2-oxopyrrolidin-3-yl]methyl}(2-{[2-(3-fluorophenyl)ethyl]amino}-6-(1-methylpyrazol-4-yl)(3-pyridyl))carboxamide],5.5
5,N#Cc1ccccc1-c1ccc(C(=O)NCCN2CCC[C@H](NC(=O)OCc3ccccc3)C2=O)c(NCCc2cccc(F)c2)n1 [(6-(2-cyanophenyl)-2-{[2-(3-fluorophenyl)ethyl]amino}(3-pyridyl))-N-(2-{2-oxo-3-[(phenylmethoxy)carbonylamino]piperidyl}ethyl)carboxamide],11.8
6,CS(=O)(=O)NC(=O)CNC(=O)c1ccc(-c2ccccc2C#N)nc1NCCc1cccc(F)c1 [2-[(6-(2-cyanophenyl)-2-{[2-(3-fluorophenyl)ethyl]amino}(3-pyridyl))carbonylamino]-N-(methylsulfonyl)acetamide],24.9
7,CC(C)[C@H](CNC(=O)c1ccc(-c2ccccc2C#N)nc1NCCc1cccc(F)c1)NC(=O)CO [N-((1R)-1-{[(6-(2-cyanophenyl)-2-{[2-(3-fluorophenyl)ethyl]amino}(3-pyridyl))carbonylamino]methyl}-2-methylpropyl)-2-hydroxyacetamide],0.441
8,N#Cc1ccccc1-c1ccc(C(=O)NC[C@H]2CCCC(=O)N2CCCCN)c(NCCc2cccc(F)c2)n1 [N-{[(2R)-1-(4-aminobutyl)-6-oxo(2-piperidyl)]methyl}(6-(2-cyanophenyl)-2-{[2-(3-fluorophenyl)ethyl]amino}(3-pyridyl))carboxamide],0.032
9,NCc1ncccc1CNC(=O)c1ccc(-c2cc[nH]n2)nc1NCCc1cccc(F)c1 [N-{[2-(aminomethyl)(3-pyridyl)]methyl}(2-{[2-(3-fluorophenyl)ethyl]amino}-6-pyrazol-3-yl(3-pyridyl))carboxamide],0.043
10,CN(C)c1ccc(-c2ccc(C(=O)NCc3cccnc3)c(NCCc3ccccn3)n2)cc1 [{6-[4-(dimethylamino)phenyl]-2-[(2-(2-pyridyl)ethyl)amino](3-pyridyl)}-N-(3-pyridylmethyl)carboxamide],0.809
11,O=C(NCc1cccnc1)c1ccc(-c2cccc(C(F)(F)F)c2)nc1NCCc1ccccn1 [{2-[(2-(2-pyridyl)ethyl)amino]-6-[3-(trifluoromethyl)phenyl](3-pyridyl)}-N-(3-pyridylmethyl)carboxamide],5.93
12,Cn1cc(-c2nc(NCCc3cccc(F)c3)c(C(=O)NCc3cccnc3CNC(=O)OC(C)(C)C)cc2F)cn1 [N-[(2-{[(tert-butoxy)carbonylamino]methyl}(3-pyridyl))methyl](5-fluoro-2-{[2-(3-fluorophenyl)ethyl]amino}-6-(1-methylpyrazol-4-yl)(3-pyridyl))carboxamide],0.388
13,Cn1cc(-c2nc(NCCc3cccc(F)c3)c(C(=O)NC[C@H]3CCCN3)cc2Cl)cn1 [N-[((2R)pyrrolidin-2-yl)methyl](5-chloro-2-{[2-(3-fluorophenyl)ethyl]amino}-6-(1-methylpyrazol-4-yl)(3-pyridyl))carboxamide],0.167
14,Cn1cc(-c2nc(NCCc3cccc(F)c3)c(C(=O)NC[C@H]3CCCN3C(=O)CCCN)cc2C#N)cn1 [N-{[(2R)-1-(4-aminobutanoyl)pyrrolidin-2-yl]methyl}(5-cyano-2-{[2-(3-fluorophenyl)ethyl]amino}-6-(1-methylpyrazol-4-yl)(3-pyridyl))carboxamide],0.211
15,COCCNC(=O)c1ccc(-c2ccccc2C#N)nc1NCCc1cccc(F)c1 [(6-(2-cyanophenyl)-2-{[2-(3-fluorophenyl)ethyl]amino}(3-pyridyl))-N-(2-methoxyethyl)carboxamide],0.238
